Laboratory results as given in US11510949B2, “Use of the treatment or improvement of sleep disorders by Lactobacillus brevis ProGA28 and/or its metabolites” (SYNGEN BIOTECH CO., LTD, priority 2019, dated 2022).

Tested on: SHR rats
Experiment: Sleep quality and quantity assessment in SHR rats after tube feeding (EEG/EMG sleep staging)
Format: in vivo
[1] = pure substance administered, FIG. 5

Method: The dosage of the test products used in the following examples is based on the daily human consumption of 8.3 mg/kg, and then according to the body surface area model coefficient of 6.2 to calculate the standard feeding dosage for rats being 52 mg/kg which is set as 1.0× dose given in the following examples.
The “sleep stage” called in the following examples includes the following three stages: awake (AW); quiet sleep (QS) which is equivalent to human non-rapid eye movement sleep (NREM) and paradoxical sleep (PS) which is equivalent to human rapid eye movement sleep (REM).
Frequency domain analysis of brain waves and myoelectric waves: each 16 seconds (1024 points) of brain wave signal acquisition is called a time window (or epoch), and is compared with 8 seconds before the next time window (50%) overlap for analysis. The fast Fourier transform is used to estimate the power spectral density and evaluate the activity of brain waves in different frequency bands. […]
Each test product was dissolved in drinking water and administered by tube feeding, the administration time was 1 hour before the light, and the physiological information of each group of rats was recorded at the beginning of the light, as a basis for sleep assessment.
In addition, pure gamma-aminobutyric acid was also administered to the SHR rats, and as described above, the physiological information of SHR rats was detected and recorded as a basis for sleep assessment.
The quality and quantity of sleep in the 24 hours after each test product was fed which was used as the range of sleep assessment:
The quantity of sleep: including the total time of sleep and wakefulness, the number of falling asleep and the average time of each sleep stage (duration) etc., and evaluate the quantity of sleep for each sleep stage; and the sleep of the group fed water is defined as 100%, used for comparing with the other groups fed test products to show the difference in each sleep stage.

Q: `NCCCC(=O)O` [pure y-aminobutyric acid, γ-aminobutyric acid] was tested. Which “quality and quantity of sleep” value (overall comparison of the figures, dose not specified) did it give?
A: Its value is “not helpful for the improvement”.

Q: What about the “sleep quality of rats” value [1] of the same compound?
A: Its value is “not helpful to increase the sleep quality”.

Q: And the sleep time [1]?
A: Its sleep time is “can not increase sleep time”.
